Assay results from ChEMBL document CHEMBL1201862, “PubChem BioAssay data set” (2004).
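Where inhibition never reached the appropriate level, the endpoint shown equals the highest concentration tested. Otherwise, values were interpolated linearly from a five-concentration, 48-hour dose response in 96-well plates. At the GI50, growth is halved.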 Active and inactive are the calls of the source. Rule as the data show it: active = GI50 up to about 1.1 µM and inactive = higher.

Key:
Assay in all cases: NCI tumour cell line growth inhibition, 48 h
[1] = system: SF-295
[2] = system: OVCAR-8
[3] = system: NCI-H460
[4] = system: HCC 2998
[5] = system: HOP-62
[6] = system: CCRF-CEM
[7] = system: TK-10
[8] = system: UACC-257
[9] = system: MOLT-4
[10] = system: NCI/ADR-RES
[11] = system: HL-60
[12] = system: SK-MEL-28
[13] = system: OVCAR-5
[14] = system: PC-3
[15] = system: NCI-H522
[16] = system: RXF 393
[17] = system: SR
[18] = system: T47D
[19] = system: 786-0
[20] = system: MDA-MB-435

Row | SMILES | GI50 [1] | GI50 [2] | GI50 [3] | GI50 [4] | GI50 [5] | GI50 [6] | GI50 [7] | GI50 [8] | GI50 [9] | GI50 [10] | GI50 [11] | GI50 [12] | GI50 [13] | GI50 [14] | GI50 [15] | GI50 [16] | GI50 [17] | GI50 [18] | GI50 [19] | GI50 [20]
1 | CN(CCNCc1cn(C)c2c1ccc1ccccc12)CCNCc1cn(C)c2c1ccc1ccccc12 | 1.79 µM (inactive) | 1.85 µM (inactive) | 0.583 µM (active) | 0.301 µM (active) | 1.79 µM (inactive) | 0.711 µM (active) | 1.64 µM (inactive) | 1.55 µM (inactive) | 1.09 µM (active) | 1.54 µM (inactive) | 1.06 µM (active) | 1.43 µM (inactive) | 1.74 µM (inactive) | 1.47 µM (inactive) | 1.77 µM (inactive) | 0.499 µM (active) | 1.04 µM (active) | 1.86 µM (inactive) | 0.881 µM (active) | 1.78 µM (inactive)
2 | O=C(O)C1=C(C(=O)O)N(c2ccncc2)C(c2ccco2)=CC1c1ccccc1[N+](=O)[O-] (stereo not given) | 12.2 µM (inactive) | 16.7 µM (inactive) | 12.6 µM (inactive) | 1.9 µM (inactive) | 13.4 µM (inactive) | 2.69 µM (inactive) | 6.01 µM (inactive) | 2.22 µM (inactive) | 3.44 µM (inactive) | 22.6 µM (inactive) | 2.88 µM (inactive) | 16.2 µM (inactive) | 15 µM (inactive) | 13.4 µM (inactive) | 1.77 µM (inactive) | 7.94 µM (inactive) | 2.03 µM (inactive) | 7.82 µM (inactive) | 2.04 µM (inactive) | 13.5 µM (inactive)
3 | CCCCCC(CO)C(O)(C(F)(F)F)C(F)(F)F (stereo not given) | > 10 µM (inactive) | > 10 µM (inactive) | > 10 µM (inactive) | > 10 µM (inactive) | > 10 µM (inactive) |  | > 10 µM (inactive) | > 10 µM (inactive) | > 10 µM (inactive) | > 10 µM (inactive) | > 10 µM (inactive) | > 10 µM (inactive) | > 10 µM (inactive) | > 10 µM (inactive) | > 10 µM (inactive) | > 10 µM (inactive) | > 10 µM (inactive) | > 10 µM (inactive) | > 10 µM (inactive) | > 10 µM (inactive)
4 | CNc1c2cccc(C)c2nc2c(C(=O)NCCN(C)C)cccc12 | 0.0586 µM (active) | 0.07 µM (active) | 0.0435 µM (active) | 0.0322 µM (active) | 0.164 µM (active) | 0.0374 µM (active) | 0.128 µM (active) | 0.211 µM (active) | < 0.0208 µM (active) | 0.265 µM (active) | 0.0847 µM (active) | 0.45 µM (active) | 0.162 µM (active) | 0.158 µM (active) | < 0.01 µM (active) | 0.0716 µM (active) | < 0.0288 µM (active) | 0.162 µM (active) | 0.104 µM (active) | 0.152 µM (active)
5 | c1ccc(-c2sc(-c3cccs3)cc2Cc2cccs2)cc1 | > 10 µM (inactive) | > 10 µM (inactive) | > 10 µM (inactive) | > 10 µM (inactive) | > 10 µM (inactive) | > 10 µM (inactive) | > 10 µM (inactive) | > 10 µM (inactive) | > 10 µM (inactive) | > 10 µM (inactive) | > 10 µM (inactive) | > 10 µM (inactive) |  | > 10 µM (inactive) | > 10 µM (inactive) | > 10 µM (inactive) | > 10 µM (inactive) | > 10 µM (inactive) | > 10 µM (inactive) | > 10 µM (inactive)
6 | O=Cc1cc(C(=O)OCc2ccccc2)n(S(=O)(=O)c2ccccc2)c1 | 14.4 µM (inactive) | 31.9 µM (inactive) | 23.7 µM (inactive) | 17 µM (inactive) | 13.2 µM (inactive) | 8.07 µM (inactive) | 24 µM (inactive) | 24.7 µM (inactive) | 23 µM (inactive) | 31 µM (inactive) | 5.75 µM (inactive) | 12.8 µM (inactive) | 18.6 µM (inactive) | 16.6 µM (inactive) | 40.4 µM (inactive) | 33.7 µM (inactive) | 3.47 µM (inactive) | 30.5 µM (inactive) | 30.7 µM (inactive) | 2.29 µM (inactive)
7 | Cc1c(C)c(S(=O)(=O)N(CCCCCCN)OCCCN)c(C)c2c1OC(C)(C)CC2 | 7.5 µM (inactive) | 8.17 µM (inactive) | 2.69 µM (inactive) | 2.04 µM (inactive) | 4.36 µM (inactive) | 2.31 µM (inactive) | 14.3 µM (inactive) | 11 µM (inactive) | 2.18 µM (inactive) | 15.5 µM (inactive) | 1.22 µM (inactive) | 17.6 µM (inactive) | > 28.7 µM (inactive) | 3.7 µM (inactive) | 4.7 µM (inactive) | 4.13 µM (inactive) | 5.92 µM (inactive) | 12.1 µM (inactive) | 3.22 µM (inactive) | 5.37 µM (inactive)
8 | COc1ccc2c(c1)CN1C(=N2)CSC1c1c(Cl)cccc1[N+](=O)[O-] (stereo not given) | 21.8 µM (inactive) | 30.1 µM (inactive) | 14.7 µM (inactive) | 22.7 µM (inactive) | 34.3 µM (inactive) |  | 28.2 µM (inactive) | 17.2 µM (inactive) | 12.6 µM (inactive) | 15.1 µM (inactive) | 11.5 µM (inactive) | 18.5 µM (inactive) | 26.4 µM (inactive) | 23.8 µM (inactive) | 23.7 µM (inactive) | 22.5 µM (inactive) | 15.6 µM (inactive) | 31 µM (inactive) | 25.9 µM (inactive) | 20.1 µM (inactive)
9 | CO[C@H]1C[C@](C)(O)Cc2cc3c(c(O)c21)C(=O)c1c(O)cc2c(c1C3=O)O[C@@H]1O[C@@]2(C)[C@H](O)[C@@H](N(C)C)[C@@H]1O | 0.284 µM (active) | 0.9 µM (active) | 0.0295 µM (active) | 2.15 µM (inactive) | 0.181 µM (active) | 0.151 µM (active) | 6.98 µM (inactive) | 9.73 µM (inactive) |  | 10 µM (inactive) | 0.115 µM (active) | 5.82 µM (inactive) | 3.35 µM (inactive) | 0.661 µM (active) | 1.04 µM (active) | 1.17 µM (inactive) | 0.0282 µM (active) | 0.818 µM (active) | 0.524 µM (active) | 1.73 µM (inactive)
10 | CSc1c2c(C)n[nH]c2nn1-c1ccccc1 |  | 27.4 µM (inactive) | > 100 µM (inactive) | 57.8 µM (inactive) |  | 33 µM (inactive) | > 100 µM (inactive) | > 100 µM (inactive) | 42.6 µM (inactive) | > 100 µM (inactive) | 29.6 µM (inactive) | > 100 µM (inactive) | > 100 µM (inactive) | 58.7 µM (inactive) | 5.01 µM (inactive) | 30.6 µM (inactive) | 20.2 µM (inactive) | 85.1 µM (inactive) | 66.8 µM (inactive) | > 100 µM (inactive)
11 | CNC(=O)OCC1=C(COC(=O)NC)C(C)N(c2ccccc2)C1 (stereo not given) | 33.7 µM (inactive) | 36.6 µM (inactive) | 29 µM (inactive) | 25.2 µM (inactive) | 53.6 µM (inactive) | 37.2 µM (inactive) | 24.5 µM (inactive) | 35.6 µM (inactive) | 23 µM (inactive) | 46.5 µM (inactive) | 21.7 µM (inactive) | 35.3 µM (inactive) | 25.4 µM (inactive) | 40.5 µM (inactive) |  | 28.4 µM (inactive) | 24.5 µM (inactive) | 26.7 µM (inactive) | 47.2 µM (inactive) | 38.3 µM (inactive)
12 | N#CC(=N)c1ncn(CCO)c1NC(=O)C(F)(F)F | > 100 µM (inactive) | > 100 µM (inactive) | > 100 µM (inactive) | > 100 µM (inactive) | > 100 µM (inactive) | > 100 µM (inactive) | > 100 µM (inactive) | > 100 µM (inactive) |  | > 100 µM (inactive) | > 100 µM (inactive) | > 100 µM (inactive) | > 100 µM (inactive) | > 100 µM (inactive) | > 100 µM (inactive) | > 100 µM (inactive) | > 100 µM (inactive) | > 100 µM (inactive) | > 100 µM (inactive) | > 100 µM (inactive)
13 | O=c1oc2ccccc2c(Nc2ccc3c(c2)S(=O)(=O)c2ccccc2O3)c1[N+](=O)[O-] | 24.8 µM (inactive) | 25.2 µM (inactive) | 25.5 µM (inactive) | 18.5 µM (inactive) | 30 µM (inactive) | 23.6 µM (inactive) | 22.4 µM (inactive) | 19.5 µM (inactive) |  | 34.4 µM (inactive) | 27.3 µM (inactive) | 18.1 µM (inactive) | 70 µM (inactive) | 21.5 µM (inactive) | 19.7 µM (inactive) | 19.5 µM (inactive) | 22 µM (inactive) | 18.7 µM (inactive) | 21.1 µM (inactive) | 23.4 µM (inactive)
14 | O=P(O)(O)OP(=O)(O)O |  | > 100 µM (inactive) | > 100 µM (inactive) | > 100 µM (inactive) | > 100 µM (inactive) | > 100 µM (inactive) | > 100 µM (inactive) | > 100 µM (inactive) | > 100 µM (inactive) | > 100 µM (inactive) | > 100 µM (inactive) | > 100 µM (inactive) | > 100 µM (inactive) | > 100 µM (inactive) | > 100 µM (inactive) | > 100 µM (inactive) | > 100 µM (inactive) | > 100 µM (inactive) | > 100 µM (inactive) | > 100 µM (inactive)
